Experimental findings from US10722514B2 (FLX Bio, Inc., priority 2017, dated 2020) are described below.

Counter-ions that a name gives are not always drawn.

T1 sequence (Q93009 whole entry): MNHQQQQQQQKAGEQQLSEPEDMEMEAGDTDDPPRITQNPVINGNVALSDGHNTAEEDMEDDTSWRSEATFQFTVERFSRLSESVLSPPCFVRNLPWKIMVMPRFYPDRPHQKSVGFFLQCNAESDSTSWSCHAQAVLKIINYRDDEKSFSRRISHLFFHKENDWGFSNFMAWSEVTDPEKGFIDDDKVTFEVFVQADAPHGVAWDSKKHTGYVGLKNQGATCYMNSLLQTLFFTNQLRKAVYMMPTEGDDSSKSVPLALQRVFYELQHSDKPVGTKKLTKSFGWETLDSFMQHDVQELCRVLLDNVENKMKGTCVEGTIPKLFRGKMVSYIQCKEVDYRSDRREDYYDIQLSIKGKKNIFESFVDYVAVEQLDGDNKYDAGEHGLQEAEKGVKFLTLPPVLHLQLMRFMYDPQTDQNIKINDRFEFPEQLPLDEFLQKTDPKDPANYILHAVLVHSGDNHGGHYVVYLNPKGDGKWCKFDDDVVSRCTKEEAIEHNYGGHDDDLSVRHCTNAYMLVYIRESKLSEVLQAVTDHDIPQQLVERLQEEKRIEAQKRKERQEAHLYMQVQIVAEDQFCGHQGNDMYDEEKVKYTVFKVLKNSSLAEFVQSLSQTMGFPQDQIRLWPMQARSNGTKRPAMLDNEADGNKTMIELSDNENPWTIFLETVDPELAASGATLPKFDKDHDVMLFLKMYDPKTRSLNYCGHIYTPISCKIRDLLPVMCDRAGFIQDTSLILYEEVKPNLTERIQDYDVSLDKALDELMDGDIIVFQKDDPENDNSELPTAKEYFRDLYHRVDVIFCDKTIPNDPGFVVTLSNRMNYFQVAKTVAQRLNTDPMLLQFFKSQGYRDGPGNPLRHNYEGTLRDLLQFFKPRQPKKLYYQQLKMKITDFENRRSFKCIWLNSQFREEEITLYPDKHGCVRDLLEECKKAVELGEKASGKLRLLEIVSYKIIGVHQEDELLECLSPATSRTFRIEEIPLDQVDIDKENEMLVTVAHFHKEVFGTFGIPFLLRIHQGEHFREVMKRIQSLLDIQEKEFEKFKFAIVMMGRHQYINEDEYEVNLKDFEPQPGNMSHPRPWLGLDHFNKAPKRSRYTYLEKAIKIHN

The first assay concerns the target T1, recombinant full-length USP7 (Homo sapiens, UniProt Q93009).
T1 construct: A 25 μl reaction volume containing recombinant full-length USP7 (62 pM)
Kind of assay: USP7-mediated ubiquitin-rhodamine cleavage assay. The conditions noted are these: recombinant full-length USP7 62 pM; ubiquitin-rhodamine 100 nM; 30-minute incubation with compound, 1 hour reaction at room temperature; read-out: Potency: USP7 IC50. In kind it is biochemical. An outline of the steps: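 IC50 values came from fluorescence measured after a 1 h room-temperature reaction of 62 pM enzyme with 100 nM ubiquitin-rhodamine, following 30 min compound preincubation; fits used four parameters.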
As usually defined, the IC50 is the concentration that inhibits the measured activity by half. Regarding `N#Cc1cc(Cl)cc(-c2ccnc3cc(CO)sc23)c1O[C@H]1CCCNC1` [Example 239, (S)-5-Chloro-3-(2-(hydroxymethyl)thieno[3,2-b]pyridin-7-yl)-2-(piperidin-3-yloxy)benzonitrile], the IC50 is greater than 30000 nM.
`O=C(O)C(F)(F)F.[2H]C1([2H])C(=O)N(Cc2cc3nccc(-c4cc(Cl)cc(C)c4O[C@@H]4CNC[C@@H]4F)c3s2)C(=O)C1([2H])[2H]` [Example 384, 1-[[7-[5-chloro-2-[(3R,4S)-4-fluoropyrrolidin-3-yl]oxy-3-methyl-phenyl]thieno[3,2-b]pyridin-2-yl]methyl]-3,3,4,4-tetradeuterio-pyrrolidine-2,5-dione; 2,2,2-trifluoroacetic acid]: the IC50 was less than 1000 nM.
Take `Cc1cc(Cl)cc(-c2ncnc3cc(CN4C(=O)C5CCCN5C4=O)sc23)c1O[C@@H]1CNC[C@@H]1F` (stereo partly drawn) [Example 160, 2-((4-(5-Chloro-2-(((3R,4S)-4-fluoropyrrolidin-3-yl)oxy)-3-methylphenyl)thieno[3,2-d]pyrimidin-6-yl)methyl)tetrahydro-1H-pyrrolo[1,2-c]imidazole-1,3(2H)-dione]: the 50% inhibitory concentration (IC50) was in the range of 1000 to 10000 nM.
As to `Cc1cc(Cl)cc(-c2ccnc3cc(CN4C(=O)CCN(C)C4=O)sc23)c1O[C@@H]1CNC[C@@H]1F` [Example 150, 3-((7-(5-Chloro-2-(((3R,4S)-4-fluoropyrrolidin-3-yl)oxy)-3-methylphenyl)thieno[3,2-b]pyridin-2-yl)methyl)-1-methyldihydropyrimidine-2,4(1H,3H)-dione], the IC50 is less than 1000 nM.
As to `CCN1CC[C@@H](Oc2c(C)cc(Cl)cc2-c2ccnc3cc(CN4C(=O)CCC4=O)sc23)[C@@H](C)C1` [Example 307, 1-[[7-[5-chloro-2-[[(3S,4R)-1-ethyl-3-methyl-4-piperidyl]oxy]-3-methyl-phenyl]thieno[3,2-b]pyridin-2-yl]methyl]pyrrolidine-2,5-dione], the IC50 is less than 1000 nM.
For `CN[C@H]1CC[C@@H](Oc2c(C)cc(Cl)cc2-c2ccnc3cc(CO)sc23)CC1` [Example 247, (7-(5-Chloro-3-methyl-2-(((l s,4s)-4-(methylamino)cyclohexyl)oxy)phenyl)thieno[3,2-b]pyridin-2-yl)methanol], the IC50 was 10000 to 30000 nM.
On to `Cc1cc(Cl)cc(-c2ncnc3cc(CN4C(=O)C5C(C4=O)C5(C)C)sc23)c1O[C@@H]1CCNC[C@@H]1C` (stereo partly drawn) [Example 365, 3-[[4-[5-chloro-3-methyl-2-[[(3S,4R)-3-methyl-4-piperidyl]oxy]phenyl]thieno[3,2-d]pyrimidin-6-yl]methyl]-6,6-dimethyl-3-azabicyclo[3.1.0]hexane-2,4-dione dihydrochloride], for which the IC50 is less than 1000 nM.
Turning to `Cc1cc(Cl)cc(-c2ccnc3cc(CN4C(=O)CCC4=O)sc23)c1O[C@H]1C[C@H]2CN[C@@H]1C2` [Example 220, 1-((7-(2-(((1R,4S,6S)-2-azabicyclo[2.2.1]heptan-6-yl)oxy)-5-chloro-3-methylphenyl)thieno[3,2-b]pyridin-2-yl)methyl)pyrrolidine-2,5-dione], the IC50 is less than 1000 nM.
Consider `Cc1cc(Cl)cc(-c2ccnc3ccsc23)c1OC1CCCNCC1` (stereo not shown) [Example 266, 7-(2-(Azepan-4-yloxy)-5-chloro-3-methylphenyl)thieno[3,2-b]pyridine], for which the IC50 was 1000 to 10000 nM.
`Cc1cc(Cl)cc(-c2ccnc3cc(CN4C(=O)C5C(C4=O)C5(C)C)sc23)c1O[C@@H]1CCNC[C@@H]1F` (stereo partly drawn) [Example 382, 3-[[7-[5-chloro-2-[[(3S,4R)-3-fluoro-4-piperidyl]oxy]-3-methyl-phenyl]thieno[3,2-b]pyridin-2-yl]methyl]-6,6-dimethyl-3-azabicyclo[3.1.0]hexane-2,4-dione; 2,2,2-trifluoroacetic acid]: the IC50 was less than 1000 nM.
As for `Cc1cc(Cl)cc(-c2ncnc3cc(CN4C(=O)C5C(C4=O)C5(C)C)sc23)c1O[C@@H]1CNC[C@@H]1C` (stereo partly drawn) [Example 349, 3-[[4-[5-chloro-3-methyl-2-[(3S,4S)-4-methylpyrrolidin-3-yl]oxy-phenyl]thieno[3,2-d]pyrimidin-6-yl]methyl]-6,6-dimethyl-3-azabicyclo[3.1.0]hexane-2,4-dione], the IC50 is less than 1000 nM.
Take `Cc1cc(Cl)cc(-c2ncnc3cc(CN4C(=O)C5CC5C4=O)sc23)c1O[C@@H]1CCNC[C@H]1F` (stereo partly drawn) [Example 309, 3-[[4-[5-chloro-2-[[(3R,4R)-3-fluoro-4-piperidyl]oxy]-3-methyl-phenyl]thieno[3,2-d]pyrimidin-6-yl]methyl]-3-azabicyclo[3.1.0]hexane-2,4-dione dihydrochloride]: the IC50 is less than 1000 nM.

The same assay, now with this note: recombinant full-length USP7 62 pM; ubiquitin-rhodamine 100 nM; 30-minute incubation, 1 hour reaction at room temperature; read-out: Potency (USP7 IC50).
For `Cc1cc(Cl)cc(-c2ccnc3cc(Cn4c(=O)ccn(CC(F)(F)F)c4=O)sc23)c1OC1CC(N2[C@@H]3CC[C@H]2COC3)C1` (stereo partly drawn) [Example 676, 3-[[7-[5-chloro-3-methyl-2-[3-[(1R,5S)-3-oxa-8-azabicyclo[3.2.1]octan-8-yl]cyclobutoxy]phenyl]thieno[3,2-b]pyridin-2-yl]methyl]-1-(2,2,2-trifluoroethyl)pyrimidine-2,4-dione], the IC50 is less than 1000 nM.

Staying with this assay, now noted: recombinant full-length USP7 62 pM; ubiquitin-rhodamine 100 nM; 30-minute pre-incubation, 1 hour reaction at room temperature; read-out: Potency (USP7 IC50).
As for “3-[[7-[5-chloro-2-[2-(3-hydroxyazetidin-1-yl)ethoxy]-3-methyl-phenyl]thieno[3,2- [Example 667]”, the IC50 is less than 1000 nM.
The same measure, in the same setting: the figure for `Cc1cc(Cl)cc(-c2ccnc3cc(Cn4c(=O)ccn(CC(F)(F)F)c4=O)sc23)c1OC1CNCC[C@@]1(C)F` (stereo partly drawn) [Example 405, 3-[[7-[5-chloro-2-[[(4R)-4-fluoro-4-methyl-3-piperidyl]oxy]-3-methyl-phenyl]thieno[3,2-b]pyridin-2-yl]methyl]-1-(2,2,2-trifluoroethyl)pyrimidine-2,4-dione; 2,2,2-trifluoroacetic acid] is less than 1000 nM.
Still for that read-out and setting: the figure for `Cc1cc(Cl)cc(-c2ccnc3cc(CN4C(=O)CCC4=O)sc23)c1OC1CCCNC1C` (stereo not shown) [Example 419, 1-[[7-[5-chloro-3-methyl-2-[(2-methyl-3-piperidyl)oxy]phenyl]thieno[3,2-b]pyridin-2-yl]methyl]pyrrolidine-2,5-dione] is less than 1000 nM; for `Cc1cc(Cl)cc(-c2ccnc3cc(Cn4c(=O)ccn(C)c4=O)sc23)c1O[C@@H]1CN(C(C)C)C[C@@H]1F` [Example 469, 3-[[7-[5-chloro-2-[(3R,4S)-4-fluoro-1-isopropyl-pyrrolidin-3-yl]oxy-3-methyl-phenyl]thieno[3,2-b]pyridin-2-yl]methyl]-1-methyl-pyrimidine-2,4-dione] it is less than 1000 nM.
Turning to `Cc1cc(Cl)cc(-c2ncnc3cc(Cn4c(=O)ccn(CC(F)(F)F)c4=O)sc23)c1O[C@H]1CC[C@](C)(N)C1` [Example 586, 3-[[4-[2-[(1S,3S)-3-amino-3-methyl-cyclopentoxy]-5-chloro-3-methyl-phenyl]thieno[3,2-d]pyrimidin-6-yl]methyl]-1-(2,2,2-trifluoroethyl)pyrimidine-2,4-dione; 2,2,2-trifluoroacetic acid], the IC50 was less than 1000 nM.
For `Cc1cc(Cl)cc(-c2ccnc3c(F)c(CO)sc23)c1O[C@@H]1CNC[C@@H]1F` [Example 407, [7-[5-chloro-2-[(3R,4S)-4-fluoropyrrolidin-3-yl]oxy-3-methyl-phenyl]-3-fluoro-thieno[3,2-b]pyridin-2-yl]methanol], the IC50 was less than 1000 nM.
The same measure, in the same setting: the same measure for `Cc1cc(Cl)cc(-c2ccnc3cc(Cn4c(=O)ccn(CC(F)(F)F)c4=O)sc23)c1OCC1(F)CNC1` [Example 641, 3-[[7-[5-chloro-2-[(3-fluoroazetidin-3-yl)methoxy]-3-methyl-phenyl]thieno[3,2-b]pyridin-2-yl]methyl]-1-(2,2,2-trifluoroethyl)pyrimidine-2,4-dione]: less than 1000 nM; for `Cc1cc(Cl)cc(-c2ccnc3cc(Cn4c(=O)ccn(CC(F)(F)F)c4=O)sc23)c1OC1(C)CCCNC1` (stereo not shown) [Example 639, 3-[[7-[5-chloro-3-methyl-2-[(3-methyl-3-piperidyl)oxy]phenyl]thieno[3,2-b]pyridin-2-yl]methyl]-1-(2,2,2-trifluoroethyl)pyrimidine-2,4-dione]: less than 1000 nM.
Consider `CC[C@@H]1C[C@H](Oc2c(C)cc(Cl)cc2-c2ccnc3cc(Cn4c(=O)ccn(CC(F)(F)F)c4=O)sc23)CCN1` [Example 636, 3-[[7-[5-chloro-2-[[(2R,4R)-2-ethyl-4-piperidyl]oxy]-3-methyl-phenyl]thieno[3,2-b]pyridin-2-yl]methyl]-1-(2,2,2-trifluoroethyl)pyrimidine-2,4-dione], for which the IC50 was less than 1000 nM.
In the case of `COC(=O)[C@@H]1C[C@H](Oc2c(C)cc(Cl)cc2-c2ccnc3cc(Cn4c(=O)ccn(CC(F)(F)F)c4=O)sc23)CN1` [Example 652, methyl (2S,4S)-4-[4-chloro-2-[2-[[2,6-dioxo-3-(2,2,2-trifluoroethyl)pyrimidin-1-yl]methyl]thieno[3,2-b]pyridin-7-yl]-6-methyl-phenoxy]pyrrolidine-2-carboxylate], the IC50 is less than 1000 nM.
On the same count and under the same terms, the figure for `Cc1cc(Cl)cc(-c2ccnc3cc(Cn4c(=O)ccn(CC(F)(F)F)c4=O)sc23)c1OCC1CNCCO1` (stereo not shown) [Example 651, 3-[[7-[5-chloro-3-methyl-2-(morpholin-2-ylmethoxy)phenyl]thieno[3,2-b]pyridin-2-yl]methyl]-1-(2,2,2-trifluoroethyl)pyrimidine-2,4-dione; 2,2,2-trifluoroacetic acid] is less than 1000 nM; for `Cc1cc(Cl)cc(-c2ccnc3cc(Cn4c(=O)ccn(CC(F)(F)F)c4=O)sc23)c1OCCN1CCCCC1` [Example 666, 3-[[7-[5-chloro-3-methyl-2-[2-(1-piperidyl)ethoxy]phenyl]thieno[3,2-b]pyridin-2-yl]methyl]-1-(2,2,2-trifluoroethyl)pyrimidine-2,4-dione] it is less than 1000 nM.
